# Experiments:
# mTOR-mLST8 = target: T1, mTOR-mLST8 (Homo sapiens, UniProt P42345+Q9BVC4); assay: Coimmunoprecipitation of mLST8 with mTOR from 293T cells incubated with compound; assay type: cell-based; settings: nontransfected 293T cells; much less pronounced than effect on raptor
# T1 construct: expressed in transfected cells; host or cells: 293T
# Protocol: FIG. 11A & 11B represent data showing FTS inhibits PHAS-I phosphorylation and promotes dissociation of the mTOR-raptor complex in 293T cells. 293T cells were transfected with pcDNA3AU1-mTOR, pcDNA33HARaptor, pcDNA33HA-mLST8, and pCMV-Tag3APHAS-I (FIG. 11A). After 18 h the cells were incubated for 1 h with increasing concentrations of FTS before extracts were prepared. A sample of each extract was subjected to SDS-PAGE and immunoblotted to detect PHAS-I or PThr^36/45. AU1-mTOR was also immunoprecipitated from each extract, and immune complexes were subjected to SDSPAGE and immunoblotted with mTAb2, to detect mTOR, and with anti-HA antibodies, to detect HA-mLST8 and HA-raptor. Nontransfected 293T cells were incubated with increasing concentrations of FTS for 1 h before extracts were prepared. mTOR was immunoprecipitated with mTAb1, and samples were subjected to SDS-PAGE.
# FIGS. 12A & 12B represent data showing the effects of incubating cells with increasing concentrations of FTS and GTS on mTOR activity and mTOR association with raptor and mLST8. AU1-mTOR, HA-raptor, and HAmLST8 were overexpressed in 293T cells. The cells were then incubated for 1 h with increasing concentrations of FTS (●, ▴, ▪) or GTS (∘, Δ, □) before extracts were prepared. Immunoprecipitations were then conducted with anti-AU1 antibodies. mTOR kinase activity (●, ∘) was determined by measuring ^32P incorporation into [His^6]PHAS-I in immune complex kinases assays performed with [γ-^32P]ATP. The relative amounts of HA-raptor (▴, Δ) and HA-mLST8 (▪, □) that coimmunoprecipitated with AU1-mTOR were determined after immunoblotting with anti-HA antibodies. The results (mean values±S.E. from 3 experiments) are expressed as percentages of the mTOR activity (FIG. 12A) or coimmunoprecipitating proteins (FIG. 12B) from samples incubated without FTS or GTS, and have been corrected for the amounts of AU1-mTOR immunoprecipitated.
# To investigate further the inhibitory effects of FTS on mTOR signaling, the effect of the drug on the association of mTOR, raptor, and mLST8 was determined. […]
# [1] = tested on: ERK1/2, Akt, p70S6K, PHAS-1 phosphorylation in LTED cells; assay: IGF-1 induced activation of MAP kinase, PI3 kinase and mTOR in LTED cells (Western); assay type: cell-based, human
# Protocol: FIG. 9. represents data showing the effect of FTS on IGF-1 induced activation of MAP kinase, PI3 kinase, and mTOR in LTED cells. Subconfluent LTED cells grown in 60 mm dishes were serum starved for 24 h, pretreated with FTS (100 μM) or LY 294002 (LY, 20 μM) for 10, 30 or 60 min before addition of IGF-1 (20 ng/ml for 10 min). Cells were then harvested and cell lysates prepared. Phosphorylated and total kinases were detected by Western analysis using specific antibodies.
# LTED cells were pretreated with FTS (100 μM) or LY 294002 (20 μM) for 10, 30, and 60 min and then IGF-1 (20 ng/ml) was added for 10 min. […] The inhibitory effect was seen as early as 10 minutes of treatment whereas FTS induced no effect. In marked contrast, both FTS and Ly inhibited the phosphorylation of 4E BP-1, particularly at the 60 minute time point. (FIG. 9).
# MCF-7 cells = assay: Growth of MCF-7 cells (cell number); assay type: cell-based, human
# Protocol: FIG. 3 represents the effect of FTS on the growth of MCF-7, LTED, and MCF-10A cells. Sixty thousand cells were plated into each well of 6-well plates. Two days later, the cells were treated in triplicate for five days with FTS at indicated concentrations. The results (mean±S.E.) are expressed as percentage of the vehicle control.
# FIG. 4 represents the effect of FTS on E2 stimulated growth of MCF-7 and LTED cells. Thirty thousand cells were plated into each well of 6-well plates. Two days later, the cells were re-fed with IMEM containing 5% DCC-FBS. After another two days, cells were treated in triplicate with estradiol (10^−10 M) plus various concentrations of FTS for five days. In LTED cells, fulvestrant (10^−9 M) was included in all wells to block the effect of residual estrogen in the culture. The results (mean±S.E.) are expressed as percentage of cell number from the wells containing E2.
# The effect of FTS on growth of breast cancer cells was examined in two different cell lines: MCF-7 wild type cells which represent a model for untreated breast cancer and LTED cells as a model of cells adapting to endocrine treatment. Cells were grown in their culture media and treated with FTS for five days. […] The effect of FTS on E2-stimulated growth of MCF-7 and LTED cells was the examined. Five-day treatment of MCF-7 cells with E2 (10^−10 M) increased cell number by 8-fold compared with the vehicle control. Addition of FTS reduced cell number in a dose-dependent manner with about 50% inhibition at the concentration of 50 μM […]. […] The extent of inhibition of E2-stimulated cell growth by FTS was similar in these two cell lines.
# [2] = doses needed to inhibit tumor growth; cited from earlier work
# Solubility in buffer = assay type: physicochemical
# T1 sequence (Q9BVC4 whole entry, other chains not shown): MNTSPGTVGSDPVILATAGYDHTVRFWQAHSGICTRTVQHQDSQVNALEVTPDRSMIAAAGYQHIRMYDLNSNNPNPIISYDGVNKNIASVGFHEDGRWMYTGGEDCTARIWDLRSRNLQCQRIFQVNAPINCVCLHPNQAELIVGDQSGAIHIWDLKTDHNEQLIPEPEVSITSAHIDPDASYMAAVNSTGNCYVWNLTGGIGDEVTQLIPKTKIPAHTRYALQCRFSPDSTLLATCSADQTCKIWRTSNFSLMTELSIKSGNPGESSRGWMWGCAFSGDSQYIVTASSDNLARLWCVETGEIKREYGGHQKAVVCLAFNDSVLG
structure (smiles),measurement,setting,value
"CC(C)=CCC/C(C)=C/CC/C(C)=C/CSc1ccccc1C(=O)O [FTS, farnesylthiosalicylic acid]",amount of endogenous mLST8 that coimmunoprecipitated with mTOR,mTOR-mLST8,also decreased
same,IGF-1 induced ERK1/2 phosphorylation,"[1]; FTS 100 μM or LY 294002 20 μM for 10, 30, 60 min, IGF-1 20 ng/ml 10 min",Neither FTS nor LY 294002 inhibited
same,phosphorylation of 4E BP-1,"[1]; FTS 100 μM or LY 294002 20 μM, particularly at 60 minute time point",inhibited
same,IGF-1 induced phosphorylation of Akt at Ser473 and p70S6K at Thr389,"[1]; FTS 100 μM or LY 294002 20 μM, IGF-1 20 ng/ml 10 min",no effect
same,inhibition at 50 µM,"MCF-7 cells; Homo sapiens, MCF7, 120 h, read-out: inhibition of E2-stimulated growth (cell number)",~50%
same,basal growth,"MCF-7 cells; culture media, five days",dose-dependently inhibited
same,animal weight,[2],does not cause a reduction of animal weight
same,toxicity,[2],non-toxic
same,solubility in buffer,Solubility in buffer,only limited solubility

# — US20070037887A1, “Blockade of mtor to prevent a hormonal adaptive response” (University of Virginia Patent Foundation, priority 2003, published 2007)
